In patent US20250228239A1, “MOLECULES HAVING PESTICIDAL UTILITY, AND INTERMEDIATES, COMPOSITIONS, AND PROCESSES, RELATED THERETO” (priority 2024, published 2025):
Read-outs that look alike come from different tables or passages of the source.

What was measured:
[1] = system: Beet Armyworm (Spodoptera exigua, LAPHEG); assay: Bioassays on Beet Armyworm (BAW), 128-well diet tray assay; format: in vivo; settings: Spodoptera exigua
Method in brief: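 Mortality of second-instar larvae (1–5/well) on artificial diet treated with 50 μg/cm^2 compound, read after 5–7 days at 25° C.; values are means of eight wells.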

[2] = system: Cabbage Looper (Trichoplusia ni, TRIPNI); assay: Bioassays on Cabbage Looper (CL), 128-well diet tray assay; format: in vivo; settings: Trichoplusia ni
Method in brief: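 Second-instar larvae (1–5 per well) placed on artificial diet surface-treated with 50 μg/cm^2 test molecule applied in 90:10 acetone-water and dried. Held at 25° C., 14:10 light-dark, for five to seven days. Percent mortality scored per well and averaged over eight wells.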

[3] = Beet Armyworm, rating class, read-out: BAW
[4] = Cabbage Looper, rating class, read-out: CL
[5] = Table ABC: Biological Results, species BAW, read-out: BAW
[6] = Table ABC: Biological Results, species CL, read-out: CL
[7] = Beet Armyworm, Table ABC / ABC-DP rating, read-out: BAW rating
[8] = Cabbage Looper, Table ABC / ABC-DP rating, read-out: CL rating

Row | Compound | pest or weed control at 50 µg/cm2 [1, 3] [%] | pest or weed control at 50 µg/cm2 [2, 4] [%] | pest or weed control at 50 µg/cm2 [1, 5] [%] | pest or weed control at 50 µg/cm2 [2, 6] [%] | also measured
1 | O=C(Nc1cc(NC(=O)C(F)(F)C(F)F)c(F)cc1F)c1cc(NC(=O)[C@H]2[C@H](c3ccc(F)c(C(F)(F)F)c3)C2(Cl)Cl)ccc1Cl [F1569, 2-Chloro-5-((1R,3R)-2,2-dichloro-3-(4-fluoro-3-(trifluoromethyl)phenyl)cyclopropane-1-carboxamido)-N-(2,4-difluoro-5-(2,2,3,3-tetrafluoropropanamido)phenyl)benzamide] | 50 to 100 | 50 to 100 |  |  | 
2 | CC(C)(C)OC(=O)Nc1c(F)ccc(NC(=O)c2cc(NC(=O)[C@H]3[C@H](c4ccc(Br)c(C(F)(F)F)c4)C3(Cl)Cl)ccc2Cl)c1F (relative stereo) [F1115, trans-tert-Butyl-(3-(5-(3-(4-bromo-3-(trifluoromethyl)phenyl)-2,2-dichlorocyclopropane-1-carboxamido)-2-chlorobenzamido)-2,6-difluorophenyl)carbamate] |  |  | 50 to 100 | 50 to 100 | 
3 | CC(=O)Nc1ccc(NC(=O)c2cc(NC(=O)[C@H]3[C@H](c4ccc(F)c(Cl)c4)C3(Cl)Cl)cc(Cl)c2F)cc1 (relative stereo) [F1197, trans-N-(4-Acetamidophenyl)-3-chloro-5-(2,2-dichloro-3-(3-chloro-4-fluorophenyl)cyclopropane-1-carboxamido)-2-fluorobenzamide] |  |  | 50 to 100 | 50 to 100 | 
4 | O=C(CC(F)(F)F)Nc1c(F)ccc(NC(=O)c2cc(NC(=O)[C@H]3[C@H](c4ccc(F)c(C(F)(F)F)c4)C3(Cl)Cl)ccc2Cl)c1F [F1683, 2-Chloro-5-((1R,3R)-2,2-dichloro-3-(4-fluoro-3-(trifluoromethyl)phenyl)cyclopropane-1-carboxamido)-N-(2,4-difluoro-3-(3,3,3-trifluoropropanamido)phenyl)benzamide] | 50 to 100 | 50 to 100 |  |  | 
5 | Cc1cc(F)c(NC(=O)c2cc(NC(=O)[C@H]3[C@H](c4ccc(F)c(Cl)c4)C3(Cl)Cl)ccc2Cl)cc1[N+](=O)[O-] [F1082, 2-Chloro-5-((1R,3R)-2,2-dichloro-3-(3-chloro-4-fluorophenyl)cyclopropane-1-carboxamido)-N-(2-fluoro-4-methyl-5-nitrophenyl)benzamide] |  |  | 50 to 100 | 50 to 100 | 
6 | Cc1ccc(C(=O)Nc2c(F)ccc(NC(=O)c3cc(NC(=O)[C@H]4[C@H](c5ccc(F)c(C(F)(F)F)c5)C4(Cl)Cl)ccc3Cl)c2F)s1 [F1302, N-(3-(2-Chloro-5-((1R,3R)-2,2-dichloro-3-(4-fluoro-3-(trifluoromethyl)phenyl)cyclopropane-1-carboxamido)benzamido)-2,6-difluorophenyl)-5-methylthiophene-2-carboxamide] |  |  | 50 to 100 | 50 to 100 | 
7 | Cc1cc(NC(=O)[C@H]2[C@H](c3ccc(Cl)c(Cl)c3)C2(Cl)Cl)cc(C(=O)Nc2ccc(F)c(NC(=O)C(F)(F)F)c2F)c1Cl [F1485, 2-Chloro-5-((1R,3R)-2,2-dichloro-3-(3,4-dichlorophenyl)cyclopropane-1-carboxamido)-N-(2,4-difluoro-3-(2,2,2-trifluoroacetamido)phenyl)-3-methylbenzamide] | 50 to 100 | 50 to 100 |  |  | 
8 | O=C(Nc1ccc(F)c(NC(=O)C2CCCOC2)c1F)c1cc(NC(=O)[C@H]2[C@H](c3ccc(F)c(C(F)(F)F)c3)C2(Cl)Cl)ccc1Cl (stereo partly drawn) [F1722, N-(3-(2-Chloro-5-((1R,3R)-2,2-dichloro-3-(4-fluoro-3-(trifluoromethyl)phenyl)cyclopropane-1-carboxamido)benzamido)-2,6-difluorophenyl)tetrahydro-2H-pyran-3-carboxamide] | 50 to 100 | 50 to 100 |  |  | 
9 | O=C(Nc1ccc(F)c(NC(=O)[C@H]2CCCN2)c1F)c1cc(NC(=O)[C@H]2[C@H](c3ccc(Cl)c(Cl)c3)C2(Cl)Cl)ccc1Cl [F1663, (R)—N-(3-(2-Chloro-5-((1R,3R)-2,2-dichloro-3-(3,4-dichlorophenyl)cyclopropane-1-carboxamido)benzamido)-2,6-difluorophenyl)pyrrolidine-2-carboxamide] | 50 to 100 | 50 to 100 |  |  | 
10 | Cc1cc(NC(=O)[C@H]2[C@H](c3cc(Cl)c(Cl)c(Cl)c3)C2(Cl)Cl)cc(C(=O)Nc2c(F)ccc(N)c2F)c1Cl [F1427, N-(3-Amino-2,6-difluorophenyl)-2-chloro-5-((1R,3R)-2,2-dichloro-3-(3,4,5-trichlorophenyl)cyclopropane-1-carboxamido)-3-methylbenzamide] | 50 to 100 | 50 to 100 |  |  | 
11 | CCCNc1c(F)ccc(NC(=O)c2cc(NC(=O)[C@H]3[C@H](c4ccc(F)c(C(F)(F)F)c4)C3(Cl)Cl)ccc2Cl)c1F [F1838, 2-Chloro-5-((1R,3R)-2,2-dichloro-3-(4-fluoro-3-(trifluoromethyl)phenyl)cyclopropane-1-carboxamido)-N-(2,4-difluoro-3-(propylamino)phenyl)benzamide] |  |  |  |  | pest or weed control at 50 µg/cm2 [1, 7]: 50 to 100%; pest or weed control at 50 µg/cm2 [2, 8]: 50 to 100%
12 | Nc1c(F)ccc(NC(=O)c2cc(NC(=O)[C@H]3[C@@H](c4cc(Cl)cc(S(F)(F)(F)(F)F)c4)C3(Cl)Cl)ccc2Cl)c1F (relative stereo) [F1260, cis-N-(3-Amino-2,4-difluorophenyl)-2-chloro-5-(2,2-dichloro-3-(3-chloro-5-(pentafluoro-λ^6-sulfanyl)phenyl)cyclopropane-1-carboxamido)benzamide] |  |  | 50 to 100 | 50 to 100 | 
13 | O=C(Nc1ccc(F)c(NC(=O)C(F)F)c1F)c1cc(NC(=O)[C@H]2[C@H](c3cc(Cl)c(Cl)c(Cl)c3)C2(Cl)Cl)ccc1Cl [F1269, 2-Chloro-5-((1R,3R)-2,2-dichloro-3-(3,4,5-trichlorophenyl)cyclopropane-1-carboxamido)-N-(3-(2,2-difluoroacetamido)-2,4-difluorophenyl)benzamide] |  |  | 50 to 100 | 50 to 100 | 
14 | CC(C)(C)OC(=O)NNC(=O)c1cc(NC(=O)[C@H]2[C@H](c3cc(Cl)cc(Cl)c3)C2(Cl)Cl)ccc1Cl (relative stereo) [F2566, trans-tert-butyl 2-(2-chloro-5-(2,2-dichloro-3-(3,5-dichlorophenyl)cyclopropane-1-carboxamido)benzoyl)hydrazine-1-carboxylate] |  |  |  |  | mortality at 50 µg/cm2 ([1]; 168 h, second instar larvae, 50 μg/cm^2 of test molecule on artificial diet, 25° C., five to seven days, average of eight wells, read-out: BAW % Control (or Mortality) rating): 50 to 100%; pest or weed control at 50 µg/cm2 [1, 7]: 50 to 100%; mortality at 50 µg/cm2 ([2]; 168 h, second instar larvae, 50 μg/cm^2 of test molecule on artificial diet, 25° C., five to seven days, average of eight wells, read-out: CL % Control (or Mortality) rating): 50 to 100%; pest or weed control at 50 µg/cm2 [2, 8]: 50 to 100%
15 | Nc1c(F)ccc(NC(=O)c2cc(NC(=O)[C@H]3[C@H](c4ccc(Cl)c(Cl)c4)C3(Cl)Cl)ccc2F)c1F [F1459, N-(3-Amino-2,4-difluorophenyl)-5-((1R,3R)-2,2-dichloro-3-(3,4-dichlorophenyl)cyclopropane-1-carboxamido)-2-fluorobenzamide] | 50 to 100 | 50 to 100 |  |  | 
16 | O=C(Nc1ccc(F)c(NC(=O)C(Cl)(Cl)Cl)c1F)c1cc(NC(=O)[C@H]2[C@H](c3ccc(Cl)c(Cl)c3)C2(Cl)Cl)ccc1Cl [F1063, 2-Chloro-5-((1R,3R)-2,2-dichloro-3-(3,4-dichlorophenyl)cyclopropane-1-carboxamido)-N-(2,4-difluoro-3-(2,2,2-trichloroacetamido)phenyl)benzamide] |  |  | 50 to 100 | 50 to 100 | 
17 | O=C(Nc1c(F)ccc(NC(=O)C(F)(F)Br)c1F)c1cc(NC(=O)[C@H]2[C@H](c3ccc(F)c(C(F)(F)F)c3)C2(Cl)Cl)cc(F)c1Cl [F1356, N-(3-(2-Bromo-2,2-difluoroacetamido)-2,6-difluorophenyl)-2-chloro-5-((1R,3R)-2,2-dichloro-3-(4-fluoro-3-(trifluoromethyl)phenyl)cyclopropane-1-carboxamido)-3-fluorobenzamide] |  |  | 50 to 100 | 50 to 100 | 
18 | Nc1ccc(F)c(NC(=O)c2cc(NC(=O)[C@H]3[C@H](c4cc(Cl)cc(Cl)c4)C3(Cl)Cl)cc(F)c2Cl)c1F [F1336, N-(3-Amino-2,6-difluorophenyl)-2-chloro-5-((1R,3R)-2,2-dichloro-3-(3,5-dichlorophenyl)cyclopropane-1-carboxamido)-3-fluorobenzamide] |  |  | 50 to 100 | 50 to 100 | 
19 | O=C(Nc1ccc(F)c(NC(=O)C2(C(F)(F)F)CCC2)c1F)c1cc(NC(=O)[C@H]2[C@H](c3ccc(F)c(C(F)(F)F)c3)C2(Cl)Cl)ccc1Cl [F1849, 2-Chloro-5-((1R,3R)-2,2-dichloro-3-(4-fluoro-3-(trifluoromethyl)phenyl)cyclopropane-1-carboxamido)-N-(2,4-difluoro-3-(1-(trifluoromethyl)cyclobutane-1-carboxamido)phenyl)benzamide] |  |  |  |  | pest or weed control at 50 µg/cm2 [1, 7]: 50 to 100%; pest or weed control at 50 µg/cm2 [2, 8]: 50 to 100%
20 | O=C(Nc1ccc(F)c(NC(=O)C(F)(F)C(F)F)c1F)c1cc(NC(=O)[C@H]2[C@H](c3cc(Cl)c(Cl)c(Cl)c3)C2(Cl)Cl)ccc1Cl [F1567, 2-Chloro-5-((1R,3R)-2,2-dichloro-3-(3,4,5-trichlorophenyl)cyclopropane-1-carboxamido)-N-(2,4-difluoro-3-(2,2,3,3-tetrafluoropropanamido)phenyl)benzamide] | 50 to 100 | 50 to 100 |  |  | 
